Tests used:
Format in all cases: in vivo
Rice [1] = assay: Preemergence Herbicidal Activity, Rice; conditions: Oryza sativa, pre-emergence; for plant injury at 500 g/ha: 0.5 kg/ha
Outline: (§1)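 Herbicidal response was graded as percent control. Compound rates were in kg/ha.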

Johnsongrass [2] = assay: Preemergence Herbicidal Activity, Johnsongrass; conditions: Sorghum halepense, pre-emergence; for pest or weed control at 500 g/ha: 0.5 kg/ha
Outline: (§2)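 Efficacy is recorded as percent control at each application rate, expressed in kg/ha.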

Field Corn [3] = assay: Preemergence Herbicidal Activity, Field Corn; conditions: Zea mays, pre-emergence; for plant injury at 500 g/ha: 0.5 kg/ha
Outline: as §1

Wheat [4] = assay: Postemergence Herbicidal Activity, Wheat; conditions: Triticum aestivum, post-emergence; for plant injury at 500 g/ha: 0.5 kg/ha
Outline: as §1

Soybean [5] = assay: Preemergence Herbicidal Activity, Soybean; conditions: Glycine max, pre-emergence; for plant injury at 500 g/ha: 0.5 kg/ha
Outline: as §1

Barnyardgrass [6] = assay: Postemergence Herbicidal Activity, Barnyardgrass; conditions: Echinochloa crus-galli, post-emergence; for pest or weed control at 500 g/ha: 0.5 kg/ha
Outline: as §2

Cotton [7] = assay: Postemergence Herbicidal Activity, Cotton; conditions: Gossypium hirsutum, post-emergence; for plant injury at 500 g/ha: 0.5 kg/ha
Outline: (§3)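 Test compounds were applied, usually as solutions in 50/50 acetone/water, to plants postemergence or to soil preemergence. Rates are given in kg/ha, and activity is scored as percent control (% C).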

Green Foxtail [8] = assay: Postemergence Herbicidal Activity, Green Foxtail; conditions: Setaria viridis, post-emergence; for pest or weed control at 500 g/ha: 0.5 kg/ha
Outline: as §2

Morningglory [9] = assay: Preemergence Herbicidal Activity, Morningglory; conditions: Ipomoea, pre-emergence; for pest or weed control at 500 g/ha: 0.5 kg/ha
Outline: as §3

Wheat [10] = assay: Preemergence Herbicidal Activity, Wheat; conditions: Triticum aestivum, pre-emergence; for plant injury at 500 g/ha: 0.5 kg/ha
Outline: as §1

Field Corn [11] = assay: Postemergence Herbicidal Activity, Field Corn; conditions: Zea mays, post-emergence; for plant injury at 500 g/ha: 0.5 kg/ha
Outline: as §1

Field Bindweed [12] = assay: Preemergence Herbicidal Activity, Field Bindweed; conditions: pre-emergence; for pest or weed control at 500 g/ha: 0.5 kg/ha
Outline: as §3

Field Bindweed [13] = assay: Postemergence Herbicidal Activity, Field Bindweed; conditions: post-emergence; for pest or weed control at 500 g/ha: 0.5 kg/ha
Outline: as §3

Cotton [14] = assay: Preemergence Herbicidal Activity, Cotton; conditions: Gossypium hirsutum, pre-emergence; for plant injury at 500 g/ha: 0.5 kg/ha
Outline: as §3

Johnsongrass [15] = assay: Postemergence Herbicidal Activity, Johnsongrass; conditions: Sorghum halepense, post-emergence; for pest or weed control at 500 g/ha: 0.5 kg/ha
Outline: as §2

Soybean [16] = assay: Postemergence Herbicidal Activity, Soybean; conditions: Glycine max, post-emergence; for plant injury at 500 g/ha: 0.5 kg/ha
Outline: as §1

Morningglory [17] = assay: Postemergence Herbicidal Activity, Morningglory; conditions: Ipomoea, post-emergence; for pest or weed control at 500 g/ha: 0.5 kg/ha
Outline: as §3

Rice [18] = assay: Postemergence Herbicidal Activity, Rice; conditions: Oryza sativa, post-emergence; for plant injury at 500 g/ha: 0.5 kg/ha
Outline: as §1

Velvetleaf [19] = assay: Preemergence Herbicidal Activity, Velvetleaf; conditions: Abutilon theophrasti, pre-emergence; for pest or weed control at 500 g/ha: 0.5 kg/ha
Outline: as §3

Green Foxtail [20] = assay: Preemergence Herbicidal Activity, Green Foxtail; conditions: Setaria viridis, pre-emergence; for pest or weed control at 500 g/ha: 0.5 kg/ha
Outline: as §2

Barnyardgrass [21] = assay: Preemergence Herbicidal Activity, Barnyardgrass; conditions: Echinochloa crus-galli, pre-emergence; for pest or weed control at 500 g/ha: 0.5 kg/ha
Outline: as §2

Velvetleaf [22] = assay: Postemergence Herbicidal Activity, Velvetleaf; conditions: Abutilon theophrasti, post-emergence; for pest or weed control at 500 g/ha: 0.5 kg/ha
Outline: as §3

For `CS(=O)(=O)Nc1cc(-n2nnn(CCCF)c2=O)c(Cl)cc1F` [Compound 38, 1-[2-Chloro-4-fluoro-5-(N--methylsulfonylamino)phenyl]-4,5-dihydro-4-(3-fluoropropyl)-5H--tetrazol-5-one], the plant injury at 1000 g/ha (Rice [1]; 1.0 kg/ha) was 40%, the pest or weed control at 1000 g/ha (Johnsongrass [2]; 1.0 kg/ha) was 40% and the plant injury at 1000 g/ha (Field Corn [3]; 1.0 kg/ha) was 10%. For the same compound, the plant injury at 1000 g/ha (Wheat [4]; 1.0 kg/ha) was 50%, the plant injury at 1000 g/ha (Soybean [5]; 1.0 kg/ha) was 50% and the pest or weed control at 1000 g/ha (Barnyardgrass [6]; 1.0 kg/ha) was 50%. It also gave a plant injury at 1000 g/ha (Cotton [7]; 1.0 kg/ha) of 95%, a pest or weed control at 1000 g/ha (Green Foxtail [8]; 1.0 kg/ha) of 80% and a pest or weed control at 1000 g/ha (Morningglory [9]; 1.0 kg/ha) of 100%. The plant injury at 1000 g/ha (Wheat [10]; 1.0 kg/ha) was 10%, the plant injury at 1000 g/ha (Field Corn [11]; 1.0 kg/ha) was 50% and the pest or weed control at 1000 g/ha (Field Bindweed [12]; 1.0 kg/ha) was 95%. The pest or weed control at 1000 g/ha (Field Bindweed [13]; 1.0 kg/ha) was 100%, the plant injury at 1000 g/ha (Cotton [14]; 1.0 kg/ha) was 70% and the pest or weed control at 1000 g/ha (Johnsongrass [15]; 1.0 kg/ha) was 80%. The plant injury at 1000 g/ha (Soybean [16]; 1.0 kg/ha) was 90%, the pest or weed control at 1000 g/ha (Morningglory [17]; 1.0 kg/ha) was 100% and the plant injury at 1000 g/ha (Rice [18]; 1.0 kg/ha) was 20%. It also gave a pest or weed control at 1000 g/ha (Velvetleaf [19]; 1.0 kg/ha) of 100%, a pest or weed control at 1000 g/ha (Green Foxtail [20]; 1.0 kg/ha) of 80% and a pest or weed control at 1000 g/ha (Barnyardgrass [21]; 1.0 kg/ha) of 80%. It also gave a pest or weed control at 1000 g/ha (Velvetleaf [22]; 1.0 kg/ha) of 100%.
Work on `CCS(=O)(=O)N(C)c1cc(-n2nnn(CCCF)c2=O)c(F)cc1Cl` [Compound 12, 1-[4-chloro-2-fluoro-5-[(N--ethylsulfonyl-N--methyl)amino]phenyl]-1,4-dihydro-4-(3-fluoropropyl)-5H--tetrazol-5-one] yielded a plant injury at 500 g/ha (Rice [1]) of 90%, a pest or weed control at 500 g/ha (Johnsongrass [2]) of 100% and a plant injury at 500 g/ha (Field Corn [3]) of 100%. For the same compound, the plant injury at 500 g/ha (Wheat [4]) was 80%, the plant injury at 500 g/ha (Soybean [5]) was 80% and the pest or weed control at 500 g/ha (Barnyardgrass [6]) was 70%. For the same compound, the plant injury at 500 g/ha (Cotton [7]) was 100%, the pest or weed control at 500 g/ha (Green Foxtail [8]) was 70% and the pest or weed control at 500 g/ha (Morningglory [9]) was 100%. For the same compound, the plant injury at 500 g/ha (Wheat [10]) was 100%, the plant injury at 500 g/ha (Field Corn [11]) was 70% and the pest or weed control at 500 g/ha (Field Bindweed [12]) was 100%. For the same compound, the pest or weed control at 500 g/ha (Field Bindweed [13]) was 100%, the plant injury at 500 g/ha (Cotton [14]) was 100% and the pest or weed control at 500 g/ha (Johnsongrass [15]) was 70%. The plant injury at 500 g/ha (Soybean [16]) was 70%, the pest or weed control at 500 g/ha (Morningglory [17]) was 100% and the plant injury at 500 g/ha (Rice [18]) was 30%. The pest or weed control at 500 g/ha (Velvetleaf [19]) was 100%, the pest or weed control at 500 g/ha (Green Foxtail [20]) was 100% and the pest or weed control at 500 g/ha (Barnyardgrass [21]) was 100%. It also gave a pest or weed control at 500 g/ha (Velvetleaf [22]) of 100%.
For `CS(=O)(=O)N(c1cc(-n2nnn(CCCF)c2=O)c(F)cc1F)S(C)(=O)=O` [Compound 8, 1-[2,4-difluoro-5-[bis(N--methylsulfonyl)amino]phenyl]-1,4-dihydro-4-(3-fluoropropyl)-5H--tetrazol-5-one], the plant injury at 500 g/ha (Rice [1]) was 70%, the pest or weed control at 500 g/ha (Johnsongrass [2]) was 50% and the plant injury at 500 g/ha (Field Corn [3]) was 40%. For the same compound, the plant injury at 500 g/ha (Wheat [4]) was 30%, the plant injury at 500 g/ha (Soybean [5]) was 30% and the pest or weed control at 500 g/ha (Barnyardgrass [6]) was 40%. It also gave a plant injury at 500 g/ha (Cotton [7]) of 95%, a pest or weed control at 500 g/ha (Green Foxtail [8]) of 50% and a pest or weed control at 500 g/ha (Morningglory [9]) of 60%. For the same compound, the plant injury at 500 g/ha (Wheat [10]) was 10%, the plant injury at 500 g/ha (Field Corn [11]) was 50% and the pest or weed control at 500 g/ha (Field Bindweed [12]) was 40%. For the same compound, the pest or weed control at 500 g/ha (Field Bindweed [13]) was 30%, the plant injury at 500 g/ha (Cotton [14]) was 95% and the pest or weed control at 500 g/ha (Johnsongrass [15]) was 30%. The plant injury at 500 g/ha (Soybean [16]) was 40%, the pest or weed control at 500 g/ha (Morningglory [17]) was 40% and the plant injury at 500 g/ha (Rice [18]) was 20%. For the same compound, the pest or weed control at 500 g/ha (Velvetleaf [19]) was 100%, the pest or weed control at 500 g/ha (Green Foxtail [20]) was 50% and the pest or weed control at 500 g/ha (Barnyardgrass [21]) was 40%. The pest or weed control at 500 g/ha (Velvetleaf [22]) was 95%.
